Patent publication US20100240754A1, “UNSATURATED FATTY AMINO ACID DERIVATIVES AND USE THEREOF IN DERMAL COSMETOLOGY” (Pierre Fabre Demo-Cosmetique, priority 2007, published 2010)
Where two headings read alike, the source gives them in different places.

Columns and labels:
[1] = system: fibroblast cell line L929; experiment: In vitro assay of intracellular OASes (H2DCF-DA probe) after H2O2/iron oxidative stress; type: cell-based, murine; details: Mus musculus, L929, 3 h pretreatment, H2O2 200 μM / iron 2 mM, read-out: percentage of inhibition of intracellular OAS production (protection); for inhibition at 20 pg/mL: dose 0.02 ng/mL; for inhibition at 0.0002 µg/mL: dose 0.2 ng/mL; for inhibition at 0.002 µg/mL: dose 2 ng/mL; for inhibition at 0.02 µg/mL: dose 20 ng/mL
Text: We have set up a model for an in vitro study of oxidative stress induced by H2O2/iron, H2O2 which massively generates intracellular OASes by a chain reaction triggered by the oxidation of membrane lipids.
This technique is based on the use of a fluorescent probe, 6-carboxy-2′, 7′ dichlorodihydrofluorescein diacetate, di(acetoxymethyl ester) (H2DCF-DA), which, once it has penetrated the cell, is deacetylated by the intracellular esterases then forming H2DCF. This product is oxidized by intracellular OASes into a highly fluorescent compound: 2′,7′-dichlorofluorescein, (DCF) (Suematsu M et al, 1996, Free Radicals Practical Approach, Punchard ed. P83-99).
Cutaneous murine fibroblast cell line L929.
The tested concentrations are non-cytotoxic concentrations. Cytoxicity was evaluated by the neutral red method, after incubation of the product for 3 hours.
The reference anti-radical product is vitamin E or α-tocopherol (MW: 430.7) (SIGMA, ref.: T-1539).
The mother solution is prepared at 400 mg/mL in DMSO and stored at −20° C. The pretreatment solution is prepared extemporaneously at 400 μg/mL in a culture medium without FCS.
For evaluating unsaturated fatty amino acid derivatives, the dilutions are prepared in the culture medium extemporaneously for a range of concentrations of 0.02, 0.2, 2 and 20 ng/mL.
The cells of the fibroblast line L929 are sown in microplates with 96 wells with a flat bottom in 100 μL of DMEM supplemented with 10% of FCS, and they are then incubated overnight at 37° C. in a humid atmosphere with 5% CO2.
The dilutions of the products to be tested and of the reference molecule are conducted in culture mediums without FCS, and then deposited in 7 wells in an amount of 100 μL per well.
The cells are then incubated for 3 hours at 37° C. in a humid atmosphere with 5% CO2.
The cells are rinsed with PBS 1× in an amount of 100 μL per well. Next they are set to incubate for 30 min at 37° C. in a humid atmosphere with 5% CO2 and with 50 μL of H2DCF-DA probe at 5 μM.
After 30 min in contact with the probe alone, the cells are incubated for 30 min at 37° C. in a humid atmosphere with […] with addition of 25 μL of H2O2 at 800 μM and 25 μL of 8 mM ferrous and ferric iron solution, in order to have final concentrations of 200 μM of H2O2 and 2 mM of ferrous and ferric iron.
The cells are then rinsed with PBS 1× in an amount of 100 μL per well, and then incubated for 30 min at 37° C. in a humid atmosphere with 5% CO2 and with 100 μL of PBS 1×.
These 1 h 30 minutes of incubation at 37° C. allow the intracellular esterases to deacetylate the H2DCF probe, oxidizable by intracellular OASes into DCF; a fluorescent compound, the formation of which is proportional to the amount of intracellular OASes.
The fluorescence intensity is read with the cytofluorimeter at λexcitation=485 nm and λemission=530 nm. It reflects the amount of produced intracellular OASes.
With the below ratio, it is possible to calculate for each concentration of tested product the % of protection against production of intracellular OASes (since the fluorescence intensity or FI expresses intracellular release of OASes).
The values indicated in Table 3 are percentages of inhibition of intracellular OAS production following an exogenous oxidative stress, relatively to <> cells (100%) and to <> cells (0%).

B16-F10 line = experiment: Synthesis of melanin, colorimetric assay, basal and after alpha MSH stimulation; type: cell-based, murine; details: B16-F10; for inhibition at 30 µg/mL: Mus musculus, 30 μg/mL
Protocol: 6.1) The modulating effect of unsaturated fatty amino-acid derivatives on melanogenesis was analyzed. For this, a measurement of the synthesis of melanin by a colorimetric assay is carried out on a cell line of murine melanomas: the B16-F10 line.
The effect of the products is investigated in a basal situation and after stimulating melanogenesis by a MSH for determining the depigmenting power.
The level of extracellular and intracellular melanin is then measured by spectrophotometry at a wave length of 405 nm according to the procedure (Meun, Y. J. et al.). The amount of pigment is determined by a standard range of melanin and by analysis on the Microwin software package (Berthold Biotechnologies). An assay of total proteins is conducted for samples of intracellular melanin by the BCA-Copper method at 540 nm. The standard range is produced with a standard protein, BSA (Bovine Albumin Serum).

production of IL8 = experiment: Production of interleukin 8 induced in keratinocytes by PMA and calcium ionophore A23187 (ELISA); type: cell-based; details: Keratinocyte; keratinocytes stimulated with PMA + A23187; read-out: effective dose 50 (DE50), production of IL8

| melting point | EC50 (production of IL8) | Structure (SMILES) | inhibition at 20 pg/mL [1] | inhibition at 0.0002 µg/mL [1] | inhibition at 0.002 µg/mL [1] | inhibition at 0.02 µg/mL [1] | increase of the amount of intracellular melanin (B16-F10 line; 3, 10 and 30 μg/mL) | pigmenting effect, in words (B16-F10 line) | effect on the synthesis of melanin, in words (B16-F10 line; 10 μg/mL) | inhibition at 30 µg/mL (B16-F10 line; read-out: inhibition of the amount of extra-cellular melanin) | inhibition at 30 µg/mL (B16-F10 line; read-out: inhibition of the amount of intra-cellular melanin) |
| --- | --- | --- | --- | --- | --- | --- | --- | --- | --- | --- | --- |
| 120 °C | – | Cl.NCCCCCCC=C(F)C(=O)O [Compound No. 9, 9-amino-2-fluoro-non-2-enoic acid] | 18% | 20% | 23% | 18% | – | – | – | – | – |
| – | – | NCCC/C=C(/F)C(=O)O [Compound No. 2, (E)-6-amino-2-fluoro-hex-2-enoic acid] | 14% | 19% | 14% | -13% | – | – | – | – | – |
| – | – | NCCCC/C=C(\F)C(=O)O [compound 6, (Z)-7-amino-2-fluoro-hept-2-enoic acid] | 31% | 30% | 21% | 26% | about 100% | – | – | – | – |
| 148.5 °C | – | Cl.NCCCCCCCCCCCC=C(F)C(=O)O [Compound No. 10, 14-amino-2-fluoro-tetradec-2-enoic acid] | 20% | 25% | 18% | 15% | – | – | – | – | – |
| – | – | Cl.NCCC/C=C/C(=O)O [Compound No. 1, (E)-6-amino-hex-2-enoic acid] | 12% | 13% | 5% | 1% | – | – | – | – | – |
| – | – | Cl.NCCCCC/C=C/C(=O)O [Compound No. 7, (E)-8-amino-oct-2-enoic acid] | 31% | 33% | 26% | 32% | – | – | – | – | – |
| 104 °C | – | Cl.NCCCCCC/C=C/C(=O)O [Compound No. 8, (E)-9-amino-non-2-enoic acid] | 22% | 25% | 20% | 19% | – | – | – | – | – |
| – | – | Cl.NCCCC/C=C/C(=O)O [Compound No. 4, (E)-7-amino-hept-2-enoic acid] | 13% | 12% | 8% | -14% | – | – | – | – | – |
| – | – | NCCCCC=C(F)C(=O)O [Compound No. 5, (Z+E)-7-amino-2-fluoro-hept-2-enoic acid] | 18% | 23% | 26% | 23% | – | weaker than that of molecule No. 6 | – | – | – |
| – | – | NCCC/C=C(\F)C(=O)O [compound 3, (Z)-6-amino-2-fluoro-hex-2-enoic acid] | 15% | 11% | 5% | 1% | – | – | – | – | – |
| 153 °C | 11 µg/mL | Cl.NCCCCCCCCCCC/C=C/C(=O)O [Compound No. 11, (E)-14-amino-tetradec-2-enoic acid] | 20% | 19% | 22% | 19% | – | – | without any effect | 30% | ~45% |
